In publication PMC10769034, “Aromatic oil from lavender as an atopic dermatitis suppressant” (PLOS ONE, 2024):
Several values for one entry are separate records, joined by “and”; a condition that tells them apart may be missing. Equal entries are not always repeated. Where two headings read alike, the source gives them in different places.

How the values were obtained:
[1] = test system: AhR; assay: XRE reporter assay for AD evaluation (AD cell model); conditions: for inhibitory effect in the AD cell model, compared in words: 0.5 μM FICZ, XRE-NLuc::HaCaT, not as strong as linalyl acetate; for inhibitory effect in the AD cell model, compared in words / IC50: 24 h; for IC50: Homo sapiens, read-out: IC50 of inhibition of AD (XRE reporter expression)
[2] = test system: ARE-NLuc::HaCaT
[3] = test system: ARE-NLuc::HaCaT; remark: listed apart in the source
[4] = test system: ARE-NLuc::HaCaT; assay: Cell viability (WST-1) in the keratinocyte activation assay; conditions: 48 h, mean ± SD of three experiments
[5] = test system: ARE-NLuc::HaCaT; assay: Keratinocyte activation assay (ARE reporter assay, OECD TG442D); conditions: 48 h; positive criteria of TG442D
[6] = test system: ARNT; assay: ARNT mRNA level by qPCR in HaCaT cells; type: cell-based, human; conditions: FICZ with or without linalyl acetate or linalool, 24 h
Source text: Briefly, the total RNA was extracted, and reverse transcribed using SuperPrep II Cell Lysis & RT Kit for qPCR (#SCQ-401, Toyobo, Tokyo, Japan), according to the manufacturer’s instructions. The cDNA obtained was subjected to a quantitative polymerase chain reaction (qPCR) with THUNDERBIRD Next SYBR qPCR Mix (#QPX-201, Toyobo) according to the manufacturer’s protocol using the StepOne Real-Time PCR System (Thermo Fisher Japan, Tokyo, Japan). The expression of each gene obtained using qPCR was normalized to that of glyceraldehyde-3-phosphate dehydrogenase (GAPDH). […] The cycle threshold (Ct) value of GAPDH in each sample was used as an internal control.
Total RNA was then extracted and reverse transcribed to cDNA that was subjected to qPCR using the primer set listed in S2 Table in S1 File. AhR and ARNT expression was normalized to GAPDH expression. Fold induction was calculated as the vehicle set at 1. Values in the graphs represent the mean ± SD of two independent experiments. […] All the Western blots are shown from two (anti-ARNT) or three (anti-AhR and anti-gamma tubulin) independent experiments. […] The intensities are relative to the vehicle set at 1.

[7] = test system: AhR; assay: AhR mRNA level by qPCR in HaCaT cells; type: cell-based, human; conditions: FICZ with or without linalyl acetate or linalool, 24 h
[8] = test system: ARNT; assay: ARNT protein level by western blotting in HaCaT cells; type: cell-based, human; conditions: FICZ alone, 24 h
Source text: All the Western blots are shown from two (anti-ARNT) or three (anti-AhR and anti-gamma tubulin) independent experiments. […] The intensities are relative to the vehicle set at 1.

[9] = cited from earlier work
[10] = test system: CD86 on U937 cells; parameters: method as in PMID 23576290; conditions: cited from earlier work
[11] = test system: Artemin; assay: FICZ-induced Artemin mRNA expression by qPCR in HaCaT cells; type: cell-based; conditions: Homo sapiens, 24 h, read-out: IC50 of decrease of FICZ-induced Artemin expression
[12] = test system: HaCaT cells; assay: RNAseq on treated HaCaT cells analysed by DisGeNET-Metascape; type: cell-based, human; conditions: authors' reply to reviewer, data not shown
Source text: Thank you for your comment. […] To clarify that our conclusion is limited, we have added some words in the revised Discussion section.

[13] = cited from earlier work; remark: listed apart in the source
[14] = test system: AhR; assay: AhR protein level by western blotting in HaCaT cells; type: cell-based, human; conditions: FICZ and linalyl acetate, 24 h
Procedure: Sodium dodecyl sulfate–polyacrylamide gel electrophoresis (SDS–PAGE) and western blotting were performed as described previously. Cell lysates were prepared in lysis buffer [10 mM HEPES-KOH, pH 7.4, 100 mM KCl, 1 mM MgCl2, 1% Triton X-100, and protease inhibitor cocktails (Nacalai)]. After incubation for 10 min on ice, the lysate was clarified by centrifugation at 14,000 × g for 10 min. The supernatants were then subjected to SDS–PAGE on a 7.5% gel (Bio-Rad). The gel was electrotransferred to polyvinylidene fluoride or polyvinylidene difluoride membranes (pore size: 0.45 μm, Merck Group Japan, Tokyo, Japan). The proteins on the membrane were detected by incubation with diluted anti-AhR, anti-ARNT (Santa Cruz Biotechnology, Cosmo Bio Co., LTD, Tokyo, Japan), and anti-γ-tubulin (Sigma, Sigma-Aldrich Japan, Tokyo, Japan) followed by HRP-conjugated anti-mouse immunoglobulin G (Cell Signaling, CST Japan, Tokyo, Japan) using a charge-coupled device camera.
Next, we measured the mRNA and protein expression of AhR and ARNT by qPCR and western blotting, respectively.
Total RNA was then extracted and reverse transcribed to cDNA that was subjected to qPCR using the primer set listed in S2 Table in S1 File. […] Fold induction was calculated as the vehicle set at 1. […] The right-side numbers are experimental numbers. d) Band intensity of each lane was quantified by ImageJ and normalized to […]. […]

[15] = test system: U937 cells; conditions: human
[16] = test system: CD86 on U937 cells; conditions: for CD86+ FL1 positivity (%): 200 µg/mL, control printed for each of three test series
[17] = Cell viability (PI staining) in the dendritic cell activation assay; conditions: human, U937 cells, %Viability, control printed for each of three test series
[18] = test system: U937 cells; assay: as above; conditions: 200 µg/mL, control printed for each of three test series

In the case of `C=CC(C)(O)CCCC(C)C` (centres unmarked) [DHL, 6,7-Dihydrolinalool], the “inhibitory effect in the AD cell model, compared in words” value [1] is reported as “stronger inhibitory effects than linalool”, the CV70 [2] is reported as 1319 ± 52.3 µM and the “outcome of the keratinocyte activation assay” value [3] is reported as “weakly positive”.

In the case of `C=C(C)C(=O)OCCOC(=O)C(=C)C` [Ethylene glycol dimethacrylate, ethylene glycol dimethacrylate, reference compound], the CV70 [4] is reported as 523 ± 59.0 µM, the CV70 ([4]; listed as EGDMA) is reported as 523 ± 59.0 µM and the “outcome of the keratinocyte activation assay” value [5] is reported as “positive”.

For `O=Cc1c2[nH]c3ccccc3c2cc2[nH]c3ccccc3c12` [FICZ, 6-formylindolo[3,2-b]carbazole], the “ARNT mRNA level” value [6] was “did not change”, the “AhR mRNA level” value [7] was “did not change” and the ARNT protein level [8] was “increased”.

In the case of `C=CC(C)(O)CCC=C(C)C` (centres unmarked) [Linalool], the IC50 [1] is listed as > 1000 µM, the “AhR mRNA level” value [7] is listed as “did not change” and the “Patch test (human)” value [9] is listed as 0.2% positive ^##, ^###. For the same compound, the CV70 [4] was >2000 µM, the “outcome of the dendritic cell activation assay” value [10] was “positive” and the “outcome of the keratinocyte activation assay” value [5] was “negative”. It also gave an IC50 ([11]; 5 μM FICZ, qPCR normalized to GAPDH) of 194 µM.

For `C=CC(C)(CCC=C(C)C)OC(C)=O` (centres unmarked) [Linalyl acetate], the “evidence of contact allergy in RNAseq” value [12] was “no evidence of contact allergy”, the IC50 [1] was 519 µM and the XRE reporter expression ([1]; without activation of AhR by FICZ) was “decreased XRE reporter expression”. For the same compound, the “AhR mRNA level” value [7] was “did not change”, the patch test [9] was “negativity” and the CV70 [4] was 1466 ± 45.4 µM. For the same compound, the “outcome of the keratinocyte activation assay” value [5] was “weakly positive”, the “Key event 4, Local lymph node assay” value [13] was “weak positivity” and the “reduction of AhR protein level compared with FICZ alone” value [14] was “approximately 30%”. The CV70 [15] was 16 ± 3.8 µg/mL, the “S.I. value of CD86” value [16] was “less than 150” and the “outcome of the dendritic cell activation assay” value [16] was “negative”. It also gave an IC50 [11] of 3.6 µM.

In the case of `CCC(C)(O)CCCC(C)C` (centres unmarked) [THL, tetrahydrolinalool], the “inhibitory effect in the AD cell model, compared in words” value [1] is reported as “stronger inhibitory effects than linalool”, the CV70 [2] is reported as 1416 ± 90.6 µM and the “outcome of the keratinocyte activation assay” value [3] is reported as “weakly positive”.

For `CC(O)C(=O)O` (centres unmarked) [lactic acid], the viability at 48 h, 200 µg/mL ([17]; Experiment 1, 48 h) was 97.4%, the viability at 48 h, 200 µg/mL ([17]; Experiment 2, 48 h) was 96.4% and the “%Viability” value ([18]; Experiment 1, 48 h) was 96.2%. The “%Viability” value ([18]; Experiment 2, 48 h) was 95.4% and 94.4%, the “CD86+ FL1 positivity (%)” value ([16]; Experiment 1, 48 h) was 11.5% and 10.1% and the “CD86+ FL1 positivity (%)” value ([16]; Experiment 2, 48 h) was 8.4% and 12.6% and 11.7%.
